How the values were obtained:
Test in all cases: Kinase panel
Format in all cases: biochemical
Conditions in all cases: read-out: % Residual Activity
PI3 Kinase (p120g)(h) = molecular target: T1, PI3 Kinase (p120g)(h) (Homo sapiens, UniProt P48736)
T1 construct: purchased Eurofins (KinaseProfiler)
Summary of the method: (§1)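 Radiometric kinase assay, ATP at Km for each enzyme; IC50 → Ki via Cheng–Prusoff. Part of a kinome-wide selectivity screen of rilpivirine.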

TSSK1(h) = molecular target: T2, TSSK1(h) (Homo sapiens, UniProt Q9BXA7)
T2 construct: purchased Eurofins (KinaseProfiler)
Summary of the method: as §1

TAO2(h) = molecular target: T3, TAO2(h) (Homo sapiens, UniProt Q9UL54)
T3 construct: purchased Eurofins (KinaseProfiler)
Summary of the method: as §1

Abl (H396P) (h) = molecular target: T4, Abl (H396P) (h) (Homo sapiens, UniProt P00519, H396P)
T4 construct: purchased Eurofins (KinaseProfiler)
Summary of the method: as §1

TGFBR2(h) = molecular target: T5, TGFBR2(h) (Homo sapiens, UniProt P37173)
T5 construct: purchased Eurofins (KinaseProfiler)
Summary of the method: as §1

Met(D1246H)(h) = molecular target: T6, Met(D1246H)(h) (Homo sapiens, UniProt P08581, D1228H)
T6 construct: purchased Eurofins (KinaseProfiler)
Summary of the method: as §1

TTK(h) = molecular target: T7, TTK(h) (Homo sapiens, UniProt P33981)
T7 construct: purchased Eurofins (KinaseProfiler)
Summary of the method: as §1

FGFR4(h) = molecular target: T8, FGFR4(h) (Homo sapiens, UniProt P22455)
T8 construct: purchased Eurofins (KinaseProfiler)
Summary of the method: as §1

PRP4(h) = molecular target: T9, PRP4(h) (Homo sapiens, UniProt Q13523)
T9 construct: purchased Eurofins (KinaseProfiler)
Summary of the method: as §1

CDK9/cyclin T1(h) = molecular target: T10, CDK9/cyclin T1(h) (Homo sapiens, UniProt P50750)
T10 construct: purchased Eurofins (KinaseProfiler)
Summary of the method: as §1

CDK14/cyclinY(h) = molecular target: T11, CDK14/cyclinY(h) (Homo sapiens, UniProt O94921)
T11 construct: purchased Eurofins (KinaseProfiler)
Summary of the method: as §1

CLK1(h) = molecular target: T12, CLK1(h) (Homo sapiens, UniProt P49759)
T12 construct: purchased Eurofins (KinaseProfiler)
Summary of the method: as §1

Aurora-B(h) = molecular target: T13, Aurora-B(h) (Homo sapiens, UniProt Q96GD4)
T13 construct: purchased Eurofins (KinaseProfiler)
Summary of the method: as §1

[1] = molecular target: T14, PI3 Kinase (p110d/p85a)(h) (Homo sapiens, UniProt O00329)
T14 construct: purchased Eurofins (KinaseProfiler)
Summary of the method: as §1

MYO3B(h) = molecular target: T15, MYO3B(h) (Homo sapiens, UniProt Q8WXR4)
T15 construct: purchased Eurofins (KinaseProfiler)
Summary of the method: as §1

PKCα(h) = molecular target: T16, PKCα(h) (Homo sapiens, UniProt P17252)
T16 construct: purchased Eurofins (KinaseProfiler)
Summary of the method: as §1

PKAcβ(h) = molecular target: T17, PKAcβ(h) (Homo sapiens, UniProt P22694)
T17 construct: purchased Eurofins (KinaseProfiler)
Summary of the method: as §1

FGFR1(h) = molecular target: T18, FGFR1(h) (Homo sapiens, UniProt P11362)
T18 construct: purchased Eurofins (KinaseProfiler)
Summary of the method: as §1

STK16(h) = molecular target: T19, STK16(h) (Homo sapiens, UniProt O75716)
T19 construct: purchased Eurofins (KinaseProfiler)
Summary of the method: as §1

ASK1(h) = molecular target: T20, ASK1(h) (Homo sapiens, UniProt Q99683)
T20 construct: purchased Eurofins (KinaseProfiler)
Summary of the method: as §1

PKCη(h) = molecular target: T21, PKCη(h) (Homo sapiens, UniProt P24723)
T21 construct: purchased Eurofins (KinaseProfiler)
Summary of the method: as §1

Tec(h) activated = molecular target: T22, Tec(h) activated (Homo sapiens, UniProt P42680)
T22 construct: purchased Eurofins (KinaseProfiler)
Summary of the method: as §1

GCK(h) = molecular target: T23, GCK(h) (Homo sapiens, UniProt Q12851)
T23 construct: purchased Eurofins (KinaseProfiler)
Summary of the method: as §1

cKit(D816V)(h) = molecular target: T24, cKit(D816V)(h) (Homo sapiens, UniProt P10721, D816V)
T24 construct: purchased Eurofins (KinaseProfiler)
Summary of the method: as §1

CaMKIIβ(h) = molecular target: T25, CaMKIIβ(h) (Homo sapiens, UniProt Q13554)
T25 construct: purchased Eurofins (KinaseProfiler)
Summary of the method: as §1

STK32A(h) = molecular target: T26, STK32A(h) (Homo sapiens, UniProt Q8WU08)
T26 construct: purchased Eurofins (KinaseProfiler)
Summary of the method: as §1

MST4(h) = molecular target: T27, MST4(h) (Homo sapiens, UniProt Q9P289)
T27 construct: purchased Eurofins (KinaseProfiler)
Summary of the method: as §1

Pim-3(h) = molecular target: T28, Pim-3(h) (Homo sapiens, UniProt Q86V86)
T28 construct: purchased Eurofins (KinaseProfiler)
Summary of the method: as §1

PAK3(h) = molecular target: T29, PAK3(h) (Homo sapiens, UniProt O75914)
T29 construct: purchased Eurofins (KinaseProfiler)
Summary of the method: as §1

CLIK1(h) = molecular target: T30, CLIK1(h) (Homo sapiens, UniProt Q8TDR2)
T30 construct: purchased Eurofins (KinaseProfiler)
Summary of the method: as §1

DYRK1A(h) = molecular target: T31, DYRK1A(h) (Homo sapiens, UniProt Q13627)
T31 construct: purchased Eurofins (KinaseProfiler)
Summary of the method: as §1

Ret(V804M)(h) = molecular target: T32, Ret(V804M)(h) (Homo sapiens, UniProt P07949, V804M)
T32 construct: purchased Eurofins (KinaseProfiler)
Summary of the method: as §1

IGF-1R(h), activated = molecular target: T33, IGF-1R(h), activated (Homo sapiens, UniProt P08069)
T33 construct: purchased Eurofins (KinaseProfiler)
Summary of the method: as §1

TAO3(h) = molecular target: T34, TAO3(h) (Homo sapiens, UniProt Q9H2K8)
T34 construct: purchased Eurofins (KinaseProfiler)
Summary of the method: as §1

NDR2(h) = molecular target: T35, NDR2(h) (Homo sapiens, UniProt Q9Y2H1)
T35 construct: purchased Eurofins (KinaseProfiler)
Summary of the method: as §1

ROCK-II(h) = molecular target: T36, ROCK-II(h) (Homo sapiens, UniProt O75116)
T36 construct: purchased Eurofins (KinaseProfiler)
Summary of the method: as §1

Abl(T315I)(h) = molecular target: T37, Abl(T315I)(h) (Homo sapiens, UniProt P00519, T315I)
T37 construct: purchased Eurofins (KinaseProfiler)
Summary of the method: as §1

PDGFRα(D842V)(h) = molecular target: T38, PDGFRα(D842V)(h) (Homo sapiens, UniProt P16234, D842V)
T38 construct: purchased Eurofins (KinaseProfiler)
Summary of the method: as §1

T21 sequence (P24723 whole entry): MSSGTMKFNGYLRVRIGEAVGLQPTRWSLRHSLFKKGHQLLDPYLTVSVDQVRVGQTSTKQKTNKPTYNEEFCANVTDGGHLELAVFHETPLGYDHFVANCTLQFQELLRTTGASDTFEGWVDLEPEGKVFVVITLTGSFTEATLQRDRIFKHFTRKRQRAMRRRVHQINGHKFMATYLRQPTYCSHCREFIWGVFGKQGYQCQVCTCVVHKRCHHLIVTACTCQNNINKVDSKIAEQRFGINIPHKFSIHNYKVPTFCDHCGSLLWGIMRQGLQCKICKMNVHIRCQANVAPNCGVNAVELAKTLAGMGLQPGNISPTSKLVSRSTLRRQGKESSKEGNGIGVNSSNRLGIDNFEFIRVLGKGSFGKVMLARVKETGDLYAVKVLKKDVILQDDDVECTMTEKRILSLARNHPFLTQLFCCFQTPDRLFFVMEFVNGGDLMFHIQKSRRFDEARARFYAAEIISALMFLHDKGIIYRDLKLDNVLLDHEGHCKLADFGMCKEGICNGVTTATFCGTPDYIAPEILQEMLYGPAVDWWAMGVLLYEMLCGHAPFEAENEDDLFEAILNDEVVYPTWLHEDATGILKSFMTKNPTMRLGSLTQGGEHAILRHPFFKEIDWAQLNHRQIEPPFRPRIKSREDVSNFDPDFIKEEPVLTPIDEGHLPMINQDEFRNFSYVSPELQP
T10 sequence (P50750 whole entry): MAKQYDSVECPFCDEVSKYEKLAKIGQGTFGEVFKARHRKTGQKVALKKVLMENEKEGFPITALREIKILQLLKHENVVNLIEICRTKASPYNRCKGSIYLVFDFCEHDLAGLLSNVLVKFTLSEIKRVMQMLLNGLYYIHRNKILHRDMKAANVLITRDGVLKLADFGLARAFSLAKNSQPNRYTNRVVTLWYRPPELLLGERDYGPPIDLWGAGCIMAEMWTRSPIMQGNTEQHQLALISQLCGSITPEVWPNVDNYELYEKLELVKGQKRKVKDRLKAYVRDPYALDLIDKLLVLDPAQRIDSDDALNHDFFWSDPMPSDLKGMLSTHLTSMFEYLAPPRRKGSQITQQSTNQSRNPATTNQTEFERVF
T10 sequence (O60563 whole entry partner): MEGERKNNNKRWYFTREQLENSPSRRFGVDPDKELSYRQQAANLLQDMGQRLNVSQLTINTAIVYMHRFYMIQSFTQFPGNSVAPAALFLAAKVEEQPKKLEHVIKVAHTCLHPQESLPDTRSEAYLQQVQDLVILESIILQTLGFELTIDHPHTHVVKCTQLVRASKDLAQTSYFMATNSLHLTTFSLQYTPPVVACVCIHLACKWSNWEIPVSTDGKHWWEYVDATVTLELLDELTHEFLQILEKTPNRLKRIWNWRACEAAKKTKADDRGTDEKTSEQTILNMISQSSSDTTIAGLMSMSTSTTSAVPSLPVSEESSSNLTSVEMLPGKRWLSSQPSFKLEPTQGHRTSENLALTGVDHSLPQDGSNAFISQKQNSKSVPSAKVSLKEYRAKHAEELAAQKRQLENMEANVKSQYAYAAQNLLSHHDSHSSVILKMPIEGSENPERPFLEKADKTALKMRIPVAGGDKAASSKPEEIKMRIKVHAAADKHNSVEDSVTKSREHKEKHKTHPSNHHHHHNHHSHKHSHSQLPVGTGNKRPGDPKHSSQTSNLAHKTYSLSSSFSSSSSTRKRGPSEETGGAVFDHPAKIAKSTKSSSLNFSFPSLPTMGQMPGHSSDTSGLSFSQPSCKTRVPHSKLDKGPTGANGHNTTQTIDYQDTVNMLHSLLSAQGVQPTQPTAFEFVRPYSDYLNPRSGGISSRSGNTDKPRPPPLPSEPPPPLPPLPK
T20 sequence (Q99683 whole entry): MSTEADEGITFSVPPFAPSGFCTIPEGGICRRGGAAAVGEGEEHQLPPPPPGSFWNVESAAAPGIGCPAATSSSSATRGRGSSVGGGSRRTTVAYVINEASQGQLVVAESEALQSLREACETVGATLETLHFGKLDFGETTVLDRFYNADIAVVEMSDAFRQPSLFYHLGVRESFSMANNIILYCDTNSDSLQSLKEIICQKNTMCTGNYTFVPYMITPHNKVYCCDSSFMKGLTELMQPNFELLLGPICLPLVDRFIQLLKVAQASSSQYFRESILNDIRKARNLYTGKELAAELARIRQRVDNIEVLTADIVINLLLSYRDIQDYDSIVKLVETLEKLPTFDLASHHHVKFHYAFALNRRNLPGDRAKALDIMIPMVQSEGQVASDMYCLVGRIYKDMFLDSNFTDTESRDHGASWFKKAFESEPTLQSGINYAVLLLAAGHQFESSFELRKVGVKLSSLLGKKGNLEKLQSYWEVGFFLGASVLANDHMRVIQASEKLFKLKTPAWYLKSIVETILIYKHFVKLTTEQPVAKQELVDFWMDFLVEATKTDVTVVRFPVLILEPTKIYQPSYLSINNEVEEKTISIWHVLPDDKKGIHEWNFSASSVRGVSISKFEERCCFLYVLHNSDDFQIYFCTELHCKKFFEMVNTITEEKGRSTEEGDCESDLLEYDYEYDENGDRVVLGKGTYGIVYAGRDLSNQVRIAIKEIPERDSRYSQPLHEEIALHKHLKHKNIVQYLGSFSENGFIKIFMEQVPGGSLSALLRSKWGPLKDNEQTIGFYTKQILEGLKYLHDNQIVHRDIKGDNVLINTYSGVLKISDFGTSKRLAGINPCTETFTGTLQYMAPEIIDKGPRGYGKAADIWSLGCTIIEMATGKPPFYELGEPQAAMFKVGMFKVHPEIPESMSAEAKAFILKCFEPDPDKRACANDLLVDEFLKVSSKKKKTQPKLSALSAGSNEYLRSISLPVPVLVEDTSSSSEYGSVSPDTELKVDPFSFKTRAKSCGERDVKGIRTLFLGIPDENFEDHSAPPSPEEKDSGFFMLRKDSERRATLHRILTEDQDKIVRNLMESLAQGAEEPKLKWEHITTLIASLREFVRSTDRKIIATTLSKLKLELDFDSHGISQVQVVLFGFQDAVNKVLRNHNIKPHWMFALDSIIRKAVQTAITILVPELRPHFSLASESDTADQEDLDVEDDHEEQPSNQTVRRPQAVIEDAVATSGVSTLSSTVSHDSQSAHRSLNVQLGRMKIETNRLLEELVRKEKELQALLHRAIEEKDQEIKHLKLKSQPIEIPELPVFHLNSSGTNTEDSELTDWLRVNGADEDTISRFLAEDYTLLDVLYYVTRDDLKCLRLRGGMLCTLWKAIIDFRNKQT
T9 sequence (Q13523 whole entry): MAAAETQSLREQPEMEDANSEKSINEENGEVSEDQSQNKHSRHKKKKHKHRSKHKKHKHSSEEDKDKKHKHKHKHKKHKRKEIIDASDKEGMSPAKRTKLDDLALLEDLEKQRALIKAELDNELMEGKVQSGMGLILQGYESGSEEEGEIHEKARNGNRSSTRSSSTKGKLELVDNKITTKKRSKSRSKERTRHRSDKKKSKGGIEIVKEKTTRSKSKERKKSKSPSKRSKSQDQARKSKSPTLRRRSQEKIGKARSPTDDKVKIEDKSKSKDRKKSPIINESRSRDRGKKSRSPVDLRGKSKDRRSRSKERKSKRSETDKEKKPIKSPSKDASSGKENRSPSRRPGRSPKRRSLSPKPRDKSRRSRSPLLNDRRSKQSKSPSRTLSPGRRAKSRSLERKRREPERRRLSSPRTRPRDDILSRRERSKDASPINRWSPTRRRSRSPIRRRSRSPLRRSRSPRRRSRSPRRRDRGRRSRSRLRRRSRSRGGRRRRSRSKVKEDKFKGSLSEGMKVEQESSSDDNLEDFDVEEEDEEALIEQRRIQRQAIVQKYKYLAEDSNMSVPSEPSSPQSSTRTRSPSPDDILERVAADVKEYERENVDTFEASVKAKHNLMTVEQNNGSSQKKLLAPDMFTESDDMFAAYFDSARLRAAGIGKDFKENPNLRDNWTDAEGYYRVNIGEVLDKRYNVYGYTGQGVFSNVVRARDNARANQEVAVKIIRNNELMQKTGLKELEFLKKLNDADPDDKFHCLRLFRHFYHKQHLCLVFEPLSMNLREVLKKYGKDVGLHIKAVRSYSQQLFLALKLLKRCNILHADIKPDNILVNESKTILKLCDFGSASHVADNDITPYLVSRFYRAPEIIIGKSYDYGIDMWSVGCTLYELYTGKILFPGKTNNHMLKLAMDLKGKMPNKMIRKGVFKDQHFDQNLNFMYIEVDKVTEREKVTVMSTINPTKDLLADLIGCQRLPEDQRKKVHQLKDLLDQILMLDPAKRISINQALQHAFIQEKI
T18 sequence (P11362 22-822): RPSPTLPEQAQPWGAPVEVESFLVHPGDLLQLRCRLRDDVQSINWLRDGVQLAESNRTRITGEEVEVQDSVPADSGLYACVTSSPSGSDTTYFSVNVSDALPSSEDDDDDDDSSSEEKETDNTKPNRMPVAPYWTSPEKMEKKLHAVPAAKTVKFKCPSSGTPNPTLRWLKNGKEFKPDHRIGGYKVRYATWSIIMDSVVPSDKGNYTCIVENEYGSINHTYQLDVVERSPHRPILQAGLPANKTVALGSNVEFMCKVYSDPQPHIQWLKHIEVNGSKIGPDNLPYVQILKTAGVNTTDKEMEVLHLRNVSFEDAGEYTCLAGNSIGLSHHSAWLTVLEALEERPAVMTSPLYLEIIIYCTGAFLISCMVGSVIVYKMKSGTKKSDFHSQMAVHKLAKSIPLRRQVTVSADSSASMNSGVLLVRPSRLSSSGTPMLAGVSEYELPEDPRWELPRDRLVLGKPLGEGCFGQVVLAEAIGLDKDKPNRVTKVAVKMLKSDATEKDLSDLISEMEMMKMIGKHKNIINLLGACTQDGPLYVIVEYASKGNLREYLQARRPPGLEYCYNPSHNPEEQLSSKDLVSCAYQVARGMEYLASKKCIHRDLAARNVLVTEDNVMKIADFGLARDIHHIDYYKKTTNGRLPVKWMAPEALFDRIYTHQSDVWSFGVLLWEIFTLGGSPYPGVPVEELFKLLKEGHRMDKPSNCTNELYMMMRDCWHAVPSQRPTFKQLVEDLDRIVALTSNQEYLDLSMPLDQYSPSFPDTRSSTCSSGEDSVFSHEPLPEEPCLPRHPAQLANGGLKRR

Cc1cc(/C=C/C#N)cc(C)c1Nc1ccnc(Nc2ccc(C#N)cc2)n1 [rilpivirine, (E)-4-((4-((4-(2-cyanoethenyl)-2,6-dimethylphenyl)amino)pyrimidin-2-yl)amino)benzonitrile]
remaining activity at 1 µM (PI3 Kinase (p120g)(h)): 87%
remaining activity at 1 µM (TSSK1(h)): 86%
remaining activity at 1 µM (TAO2(h)): 59%
remaining activity at 1 µM (Abl (H396P) (h)): 71%
remaining activity at 1 µM (TGFBR2(h)): 94%
remaining activity at 1 µM (Met(D1246H)(h)): 95%
remaining activity at 1 µM (TTK(h)): 71%
remaining activity at 1 µM (FGFR4(h)): 121%
remaining activity at 1 µM (PRP4(h)): 113%
remaining activity at 1 µM (CDK9/cyclin T1(h)): 81%
remaining activity at 1 µM (CDK14/cyclinY(h)): 91%
remaining activity at 1 µM (CLK1(h)): 48%
remaining activity at 1 µM (Aurora-B(h)): 85%
remaining activity at 1 µM [1]: 89%
remaining activity at 1 µM (MYO3B(h)): 96%
remaining activity at 1 µM (PKCα(h)): 83%
remaining activity at 1 µM (PKAcβ(h)): 93%
remaining activity at 1 µM (FGFR1(h)): 94%
remaining activity at 1 µM (STK16(h)): 58%
remaining activity at 1 µM (ASK1(h)): 92%
remaining activity at 1 µM (PKCη(h)): 103%
remaining activity at 1 µM (Tec(h) activated): 105%
remaining activity at 1 µM (GCK(h)): 99%
remaining activity at 1 µM (cKit(D816V)(h)): 88%
remaining activity at 1 µM (CaMKIIβ(h)): 69%
remaining activity at 1 µM (STK32A(h)): 89%
remaining activity at 1 µM (MST4(h)): 91%
remaining activity at 1 µM (Pim-3(h)): 89%
remaining activity at 1 µM (PAK3(h)): 86%
remaining activity at 1 µM (CLIK1(h)): 85%
remaining activity at 1 µM (DYRK1A(h)): 56%
remaining activity at 1 µM (Ret(V804M)(h)): 92%
remaining activity at 1 µM (IGF-1R(h), activated): 99%
remaining activity at 1 µM (TAO3(h)): 65%
remaining activity at 1 µM (NDR2(h)): 100%
remaining activity at 1 µM (ROCK-II(h)): 98%
remaining activity at 1 µM (Abl(T315I)(h)): 93%
remaining activity at 1 µM (PDGFRα(D842V)(h)): 79%

From publication PMC9954146, “Anti-Leukaemic Activity of Rilpivirine Is Mediated by Aurora A Kinase Inhibition” (Cancers, 2023)
